Experimental data from article PMC7822029, “Nanoparticles Based on Quaternary Ammonium Chitosan-methyl-β-cyclodextrin Conjugate for the Neuropeptide Dalargin Delivery to the Central Nervous System: An In Vitro Study” (Pharmaceutics, 2020).
Non-standard residues stand in square brackets, D forms with d. Residues, ends and D or L forms follow the SMILES beside them.

Key:
Caco-2 monolayer = assay: Permeation across Caco-2 monolayer (Transwell); type: in vitro ADME; details: Caco-2 monolayer 24 days, A-B, apical DAL 150 µg/mL, up to 3 h, HPLC, NP as FITC-labeled DAL-NP
Experimental: The permeation studies were performed as described previously. Briefly, a Caco-2 monolayer was obtained by cell seeding (10^5 cells per well) on Transwell 12-well plates (pore size […], area 1.12 cm^2; Sigma-Aldrich, Saint Louis, MO, USA). Thereafter, 0.5 and 1.5 mL of culture medium were added to apical and basolateral compartments of the inserts, respectively; the culture medium was replaced every 2 days for 24 days. The transepithelial electrical resistance (TEER, Ω cm^2) measurement during the permeatstudies was carried out using a voltmeter with rod electrodes (Voltmeter Millicells-ERS, Millipore, Molsheim, France). The TEER values for the Caco-2 cell monolayer grown on the Transwell filter were ion taken at time 0, every hour for 3 h, and at 24 h.
Both the NP vehicle and the DAL were followed in the mucosal and basolateral phases. […] The withdrawn samples were kept in ice and analyzed by HPLC. The evaluation of DAL contained in NP-FITC by HPLC implied subtracting the contribution of the fluorescein-labeled polymer from the peptide peak area. Therefore, with each sample to be analyzed, a specific fluorescence intensity was recorded by a spectrofluorometer from which the fluorescent polymer concentration to be injected in the HPLC apparatus could be extrapolated. […]

bEnd.3 monolayer = assay: Permeation across bEnd.3 monolayer (Transwell, BBB model); type: in vitro ADME, murine
Source text: The medium was changed every 2 days.

α-chymotrypsin (CHT) = target: T1, α-chymotrypsin (CHT) (Bos taurus, UniProt P00766); assay: Enzymatic degradation kinetics with α-chymotrypsin; type: in vitro ADME; details: CHT 0.36 mg/mL mixed, final DAL 0.50 mg/mL, 0.4 M PB, 37 ℃, 80 rpm, HPLC, mean ± SD of three independent experiments
T1 construct: purchased Merk (Merck/Sigma-Aldrich, St. Louis, MO, USA)
Experimental: (§1) Stock 1 mg/mL solutions of DAL-NP or free DAL in filtered 0.4 M PB were used for the enzymatic digestion tests. The solutions were mixed with 0.36 mg/mL CHT or 0.18 mg/mL PAC to obtain solutions with a final DAL concentration of 0.50 mg/mL. The DAL-NP and free DAL samples were subjected to digestion in the presence of CHT or PAC at 37 ℃ in a shaker water bath (80 rpm). At pre-established intervals, samples were withdrawn, appropriately diluted with the mobile phase (4 ℃), and analyzed in triplicate for DAL by HPLC, as described previously. The analysis was repeated in triplicate.

[1] = Cytotoxicity by WST-1 assay, Caco-2; type: cell-based; details: human, WST-1, DAL 17–150 µg/mL, HBSS pH 6.8, three independent experiments, read-out: cell vitality, Caco-2, over the whole concentration range
Experimental: To study the cytotoxicity of the DAL/N^+-Ch-CD complex, we mixed 400 µL of polymer solution (3.175 mg/mL) and 380 µL of 1 mg/mL aqueous DAL, and the mix was lyophilized under the conditions described above. The DAL-NP were lyophilized and the lyophilized product was re-suspended in 250 µL of 0.22 µm filtered water. An aliquot of dispersion (200 µL) was withdrawn and added to 20 µL of Hank’s buffer solution 10× (HBSS 37 ℃, pH 6.8), and the mix was made to 2 mL with HBSS 1X as to have a DAL content of […]. The Caco-2 cells were subjected to DAL concentrations in the 17–150 µg/mL range, while the bEnd.3 cells were brought into contact with DAL concentrations in the 17–100 µg/mL range; more specifically, DAL was free in solution, contained in the DAL/N^+-rCh-CD (1:1) complex, or encapsulated in NP. The cytotoxicity of the compounds under study was evaluated by the WST-1 assay. Caco-2 and bEnd.3 cells were seeded in each well of 96-well plates at a seeding density of 2 × 10^4 cells per well, and left to proliferate for 24 h at 37 ℃ in 5% CO2. The culture medium was then removed and replaced with samples of DAL, DAL/N^+-Ch-CD complex, and DAL-NP, as previously described. Afterwards, formazan dye absorbance was quantified at 450 nm with the reference wavelength of 655 by using an Enspire 230 (Perkin-Elmer, Waltham, MA, USA) multilabel reader.

pancreatin (PAC) = assay: Enzymatic degradation kinetics with pancreatin; type: in vitro ADME; details: PAC 0.18 mg/mL mixed, final DAL 0.50 mg/mL, 0.4 M PB, 37 ℃, HPLC
Experimental: as §1

Experimental for bEnd.3 monolayers: The bEnd.3 cells, at a concentration of 5 × 10^4 cells per well, were seeded on 12-well Transwell plates with polyester filters with 0.4 µm membrane pores and incubated 10 days at 37 ℃ in a 5% CO2 atmosphere. One and a half milliliters of full medium was added to the basal chamber, while a volume of 0.5 mL, including the cells, was added to the apical chamber. The medium was changed every 2 days. After 6 days culture, the medium of the basolateral chamber was replaced by serum-free medium and the cells were cultured for 4 more days before the permeation experiment. To evaluate the confluence of the cell monolayer, and during the permeation studies, we measured the TEER at time 0 and at each hour for 3 h, and then at 24 h, as previously described. […] At 1 h intervals up to 3 h, the runs were interrupted and 500 µL was collected from the apical chamber and 1.5 mL from the basolateral chamber. Permeation of DAL and FITC-labeled vehicle into the basolateral chamber as well as DAL and FITC-labeled vehicle concentrations in the apical chamber were measured as described above.

Row | Papp, NaF 50 μg/mL (bEnd.3 monolayers) | Papp, NaF 100 μg/mL (bEnd.3 monolayers) | SMILES | DAL presence in basolateral chamber, Caco-2 (Caco-2 monolayer) | TEER of bEnd.3 monolayer during permeation experiment (bEnd.3 monolayer; 100% corresponds to 180 Ω cm^2, initial apical DAL 25 µg/mL, 3 h) [%] | DAL presence in basolateral chamber, bEnd.3 (bEnd.3 monolayer; bEnd.3 monolayer 10 days, Transwell, A-B, apical DAL 25 µg/mL, up to 3 h, HPLC, NP as FITC-labeled DAL-NP) | reduction of substrate (DAL) after 5 min with CHT (α-chymotrypsin (CHT)) [%] | viability [1] [%] | reduction of initial DAL content 2 min after adding PAC (pancreatin (PAC); 80 rpm, 2 min, three independent experiments) [%] | DAL present after 5 min with PAC (pancreatin (PAC); 5 min)
1 |  |  | CC(C)C[C@H](NC(=O)[C@H](Cc1ccccc1)NC(=O)CNC(=O)[C@@H](C)NC(=O)[C@@H](N)Cc1ccc(O)cc1)C(=O)N[C@@H](CCCNC(=N)N)C(=O)O [DAL, (D-Ala2)-Leu Enkephalin-Arg] (H-Y[dA]GFLR-OH) | could never be evidenced | 100 | below the analytical limit | 90 ± 0.41 | > 70 | 85 ± 1.39 | no peptide was present
2 | 0.51 10-6 cm/sec | 0.52 10-6 cm/sec | O=C1OC2(c3ccc(O)cc3Oc3cc(O)ccc32)c2ccccc21 [NaF, Sodium fluorescein] |  |  |  |  |  |  | 
